Test results published in ChEMBL document CHEMBL1122875, “Orally absorbable cephalosporin antibiotics. 3. Preparation of biologically active R isomer of 7-(3-benzothienylglycylamido)deacetoxycephalosporanic acid” (1985).
Values after ≈ are worked out from the molar mass of the structure shown.

What was measured:
Type in all cases: functional
Haemophilus influenzae [1] = assay: The compound was tested for antibacterial activity against resistant Haemophilus influenzae 76.
Staphylococcus aureus [2] = assay: Tested for antibacterial activity against methicillin resistant Staphylococcus aureus S13E.
Staphylococcus aureus [3] = assay: Tested for antibacterial activity against methicillin resistant Staphylococcus aureus X400.
Staphylococcus aureus [4] = assay: Tested for antibacterial activity against penicillin G sensitive Staphylococcus aureus X1.1
Streptococcus pyogenes = assay: The compound was tested for antibacterial activity against Streptococcus pyogenes C203.
Streptococcus pneumoniae = assay: The compound was tested for antibacterial activity against Streptococcus pneumoniae Park.
Streptococcus = assay: The compound was tested for antibacterial activity against Streptococcus group D X66.
Haemophilus influenzae [5] = assay: The compound was tested for antibacterial activity against sensitive Haemophilus influenzae C.L.
[6] = tested on: Staphylococcus epidermidis; assay: The compound was tested for antibacterial activity against Staphylococcus epidermidis EP11.
Staphylococcus aureus [7] = assay: Tested for antibacterial activity against penicillin G resistant Staphylococcus aureus V41.

Q: With `CC1=C(C(=O)O)N2C(=O)C(NC(=O)[C@@H](N)c3csc4ccccc34)C2SC1` (some centres not stated) as the molecule, how does the MIC (Haemophilus influenzae [1]) read?
A: Its MIC is 16 µg/mL (≈ 39.7 µM).

Q: What about the MIC (Staphylococcus aureus [2]) of the same molecule?
A: Its MIC is 128 µg/mL (≈ 317 µM).

Q: And the MIC (Staphylococcus aureus [3])?
A: Its MIC is greater than 128 µg/mL.

Q: And the MIC (Staphylococcus aureus [4])?
A: Its MIC is 32 µg/mL (≈ 79.3 µM).

Q: And the MIC (Streptococcus pyogenes)?
A: Its MIC is 16 µg/mL (≈ 39.7 µM).

Q: What about the MIC (Streptococcus pneumoniae) of the same molecule?
A: The MIC was 16 µg/mL (≈ 39.7 µM).

Q: And the MIC (Streptococcus)?
A: Its MIC is greater than 128 µg/mL.

Q: `CC1=C(C(=O)O)N2C(=O)C(NC(=O)[C@H](N)c3csc4ccccc34)C2SC1` (some centres not stated) was tested. Which MIC (Haemophilus influenzae [1]) did it give?
A: Its MIC is 1 µg/mL (≈ 2.48 µM).

Q: What about the MIC (Haemophilus influenzae [5]) of the same molecule?
A: The MIC was 2 µg/mL (≈ 4.96 µM).

Q: What about the MIC [6] of the same molecule?
A: Its MIC is 4 µg/mL (≈ 9.91 µM).

Q: What about the MIC (Staphylococcus aureus [2]) of the same molecule?
A: The MIC was 4 µg/mL (≈ 9.91 µM).

Q: What about the MIC (Staphylococcus aureus [3]) of the same molecule?
A: The MIC was 32 µg/mL (≈ 79.3 µM).

Q: What about the MIC (Staphylococcus aureus [7]) of the same molecule?
A: Its MIC is 4 µg/mL (≈ 9.91 µM).

Q: What about the MIC (Staphylococcus aureus [4]) of the same molecule?
A: Its MIC is 1 µg/mL (≈ 2.48 µM).

Q: What about the MIC (Streptococcus pyogenes) of the same molecule?
A: The MIC was 0.5 µg/mL (≈ 1.24 µM).

Q: And the MIC (Streptococcus pneumoniae)?
A: Its MIC is 0.5 µg/mL (≈ 1.24 µM).

Q: What about the MIC (Streptococcus) of the same molecule?
A: The MIC was 128 µg/mL (≈ 317 µM).

Q: Which MIC (Haemophilus influenzae [1]) does the source give for `CC1=C(C(=O)O)N2C(=O)C(NC(=O)C(N)c3csc4ccccc34)C2SC1` (configuration not stated) here?
A: Its MIC is 2 µg/mL (≈ 4.96 µM).

Q: What about the MIC (Haemophilus influenzae [5]) of the same molecule?
A: Its MIC is 4 µg/mL (≈ 9.91 µM).

Q: What about the MIC [6] of the same molecule?
A: The MIC was 4 µg/mL (≈ 9.91 µM).

Q: And the MIC (Staphylococcus aureus [2])?
A: Its MIC is 16 µg/mL (≈ 39.7 µM).

Q: And the MIC (Staphylococcus aureus [7])?
A: Its MIC is 8 µg/mL (≈ 19.8 µM).

Q: And the MIC (Staphylococcus aureus [4])?
A: Its MIC is 2 µg/mL (≈ 4.96 µM).

Q: And the MIC (Streptococcus pyogenes)?
A: Its MIC is 2 µg/mL (≈ 4.96 µM).

Q: What about the MIC (Streptococcus pneumoniae) of the same molecule?
A: Its MIC is 4 µg/mL (≈ 9.91 µM).

Q: What about the MIC (Streptococcus) of the same molecule?
A: Its MIC is greater than 128 µg/mL.

Q: Which results are given for `CC1=C(C(=O)O)N2C(=O)[C@@H](NC(=O)[C@H](N)c3ccccc3)[C@H]2SC1` [CEPHALEXIN ANHYDROUS]?
A: MIC (Haemophilus influenzae [1]): 8 µg/mL (≈ 23 µM); MIC (Haemophilus influenzae [5]): 8 µg/mL (≈ 23 µM); MIC [6]: 32 µg/mL (≈ 92.1 µM); MIC (Staphylococcus aureus [4]): 4 µg/mL (≈ 11.5 µM); MIC (Streptococcus pyogenes): 0.5 µg/mL (≈ 1.44 µM); MIC (Streptococcus pneumoniae): 2 µg/mL (≈ 5.76 µM)
